Assay results as given in paper PMC12372887, “Mechanism and cellular actions of the potent AMPK inhibitor BAY-3827” (Science Advances, 2025).
Where “and” joins values, the source holds several entries; their conditions need not be identical. Identical values can stand only once. Like-named read-outs stand apart in the source and are kept apart here.

What was measured:
[1] = test system: AMPK; design: method as in PMID 33492659; settings: 2 μM AMP, cited from earlier work
[2] = target: T1, AMPKα2β1γ1 (Homo sapiens, UniProt P54619+P54646+Q9Y478); assay: Cell-free AMPK kinase assay (SAMS peptide); assay type: biochemical
T1 construct: made in house; host or cells: HEK293 (transient transfection, anti-FLAG immunoprecipitate)
Description: Heterotrimeric human AMPK FLAG- α1β1γ1, FLAG- α2β1γ1, and FLAG- α2β2γ1, as well as human FLAG-CaMKK2 and FLAG-ULK1, were produced in mammalian HEK293 cells as described ([66], [67]). For AMPK expression, the cells were triply transfected at 60% confluency using FuGene HD (Roche Applied Science) and 1 μg of pcDNA3 plasmid expression constructs for AMPK Flag-α1, β1-Myc, β2-Myc, and HA-γ1. For CaMKK2 expression, the cells were transfected with 1 μg of pcDNA3 Flag-CaMKK2 plasmid. For ULK1 expression, the cells were transfected with […] of pcDNA3 FLAG-ULK1 plasmid. After 48 hours, the transfected cells were harvested by rinsing with ice-cold PBS, followed by rapid lysis using 500 μl of lysis buffer. AMPK, CaMKK2, and ULK1 kinase activities were determined by phosphorylation of synthetic peptide substrates: SAMS (HMRSAMSGLHLVKRR), CaMKKtide ([…]), and S108tide. (KLPLTRSHNNFVARRR), respectively. Briefly, recombinant AMPK, CaMKK2, or ULK1 were immunoprecipitated from 10 μg of transfected cultured cell lysate using 10 μl of anti-FLAG M2 agarose beads [50% (v/v)] (Merck MilliporeSigma), washed, and then added to a 25-μl reaction containing assay buffer [50 mM Hepes-NaOH (pH 7.4), 1 mM DTT, and 0.02% (v/v) Brij-35], 200 μM synthetic peptide substrate (SAMS, CaMKKtide, or S108tide), 200 or 20 μM [γ-^32P]-ATP (PerkinElmer), 5 mM MgCl2, in the presence of 0 to 1 μM BAY-3827 or BAY-974. Reactions were performed at 30°C and terminated after 10 min by spotting 15 μl onto phosphocellulose paper. Radioactivity was quantified by liquid scintillation counting. Data visualization and nonlinear regression fitting were performed in GraphPad Prism v10.
Data points are plotted as means ± SEM. Data were inputted, and all statistical tests were performed using GraphPad Prism, version 10.1.0. One- or two-way analysis of variance (ANOVA) statistical tests were conducted using Tukey’s correction for multiple comparisons; specific test will be stated in the figure legend. Significance was accepted as P < 0.05. N number and statistical details for each experiment are reported in each figure legend. […] To estimate IC50 values, nonlinear regression fitting was conducted using the model (Inhibitor) versus response—variable slope in GraphPad Prism (version 10.1.0) and estimating values reported in nanomolar. To estimate binding affinities (Kd) from performed spectral shift binding assays, data were fitted using a one-site total model [Y = BmaxX/(Kd + X) + NSX + Background] where X is the ligand concentration, Bmax represents the maximum binding, and NS is the slope of the nonlinear regression of Y/X. Values are reported in means ± SEM in micromolar.

[3] = test system: AMPKα1α2−/− DKO primary hepatocytes; assay: Lipogenesis assay ([14C]-acetate incorporation into fatty acids); assay type: cell-based, mouse
Description: Mouse hepatocytes were isolated by collagenase perfusion as previously described ([47]). Hepatocytes were seeded in medium Eagle-199 (MEM-199) (#41150, Thermo Fisher Scientific) containing penicillin G (100 U/ml), streptomycin (100 μg/ml), and 10% (v/v) fetal bovine serum (FBS). Hepatocytes were left for attachment (3 to 4 hours) and serum-starved overnight at 37°C with 5% CO2 in MEM-199 supplemented with penicillin G (100 U/ml), streptomycin (100 μg/ml), 10 nM insulin, and 100 nM dexamethasone. […] Cells were then harvested in 0.5 ml of phosphate-buffered saline (PBS), transferred into 1 ml of 40% KOH and 2 ml of methanol followed by 1-hour incubation at 80°C. Lipids were […] by acidifying the samples in 37% HCl and extracted with petroleum ether. Extracts were allowed to evaporate to dryness and then dissolved in Ultima Gold scintillation fluid for determination of [^14C]-acetate incorporation into lipids.

T1 sequence (P54646 whole entry): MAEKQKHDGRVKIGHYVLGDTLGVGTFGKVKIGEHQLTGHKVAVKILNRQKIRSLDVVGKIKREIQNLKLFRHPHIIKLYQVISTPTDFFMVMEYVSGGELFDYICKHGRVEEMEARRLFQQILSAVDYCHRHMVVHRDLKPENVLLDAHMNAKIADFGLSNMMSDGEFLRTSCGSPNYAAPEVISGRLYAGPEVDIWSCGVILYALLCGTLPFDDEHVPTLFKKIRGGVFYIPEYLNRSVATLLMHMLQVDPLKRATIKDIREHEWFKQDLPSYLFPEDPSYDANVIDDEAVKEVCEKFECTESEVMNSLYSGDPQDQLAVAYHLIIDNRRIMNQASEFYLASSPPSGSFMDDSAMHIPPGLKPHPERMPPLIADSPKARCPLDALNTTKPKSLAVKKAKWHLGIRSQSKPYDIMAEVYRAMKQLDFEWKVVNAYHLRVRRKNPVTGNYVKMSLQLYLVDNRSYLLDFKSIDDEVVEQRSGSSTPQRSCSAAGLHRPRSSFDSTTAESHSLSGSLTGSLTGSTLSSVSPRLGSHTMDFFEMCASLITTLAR
T1 sequence (Q9Y478 whole entry partner): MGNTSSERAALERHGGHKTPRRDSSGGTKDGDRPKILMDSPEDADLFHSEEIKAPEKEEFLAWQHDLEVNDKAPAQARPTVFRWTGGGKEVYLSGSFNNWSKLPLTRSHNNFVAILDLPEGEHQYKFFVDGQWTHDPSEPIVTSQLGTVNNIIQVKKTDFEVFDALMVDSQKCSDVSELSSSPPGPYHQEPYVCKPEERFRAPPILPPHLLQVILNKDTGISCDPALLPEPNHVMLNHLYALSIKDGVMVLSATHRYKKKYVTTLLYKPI
T1 sequence (P54619 whole entry partner): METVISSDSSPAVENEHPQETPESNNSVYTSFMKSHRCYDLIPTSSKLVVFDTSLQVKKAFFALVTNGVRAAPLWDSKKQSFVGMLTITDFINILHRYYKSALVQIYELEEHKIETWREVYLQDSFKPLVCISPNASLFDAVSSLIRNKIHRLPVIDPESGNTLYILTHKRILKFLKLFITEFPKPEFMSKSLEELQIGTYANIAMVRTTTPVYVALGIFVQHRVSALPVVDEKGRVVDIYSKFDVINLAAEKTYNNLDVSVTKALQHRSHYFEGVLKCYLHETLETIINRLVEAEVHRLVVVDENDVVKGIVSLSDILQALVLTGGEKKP

For `CCc1ccccc1C(=O)Nc1n[nH]c2c(C)c(F)c(C3C(C#N)=C(C)N(C)C(C)=C3C#N)cc12` [BAY-3827, N-[5-(3,5-dicyano-1,2,6-trimethyl-4H-pyridin-4-yl)-6-fluoro-7-methyl-1H-indazol-3-yl]-2-ethylbenzamide], the IC50 ([1]; high (2 mM) ATP) is given as 15 nM, the IC50 ([1]; low (10 μM) ATP) is given as 1.4 nM and the IC50 ([2]; 20 μM ATP) is given as 4.1 nM and 4.08 nM. For the same molecule, the IC50 ([2]; 200 μM ATP) was 57 nM and 57.1 nM and the effect on lipogenesis [3] was “no effect”.
